# Active and inactive are the calls of the source. No rule for the calls is given here.
# System: CCRIS mutagenicity, Ames/micronucleus/aberration tests
# Assay: CCRIS mutagenicity studies
# [1] = Test System: AMES SALMONELLA TYPHIMURIUM, Strain/Indicator: TA98, Metabolic Activation: NONE, Method: PREINCUBATION
# [2] = Test System: AMES SALMONELLA TYPHIMURIUM, Strain/Indicator: TA100, Metabolic Activation: NONE, Method: PREINCUBATION
# [3] = Test System: AMES SALMONELLA TYPHIMURIUM, Strain/Indicator: TA98, Metabolic Activation: NONE, Method: STANDARD PLATE
# [4] = Test System: AMES SALMONELLA TYPHIMURIUM, Strain/Indicator: TA100, Metabolic Activation: NONE, Method: STANDARD PLATE
# [5] = Test System: AMES SALMONELLA TYPHIMURIUM, Strain/Indicator: TA1535, Metabolic Activation: NONE, Method: STANDARD PLATE
# [6] = Test System: AMES SALMONELLA TYPHIMURIUM, Strain/Indicator: TA1537, Metabolic Activation: NONE, Method: STANDARD PLATE
# [7] = Test System: AMES SALMONELLA TYPHIMURIUM, Strain/Indicator: TA1538, Metabolic Activation: NONE, Method: STANDARD PLATE
# [8] = Test System: AMES SALMONELLA TYPHIMURIUM, Strain/Indicator: TA1535, Metabolic Activation: NONE, Method: PREINCUBATION
# [9] = Test System: AMES SALMONELLA TYPHIMURIUM, Strain/Indicator: TA1537, Metabolic Activation: NONE, Method: PREINCUBATION
# [10] = Test System: AMES SALMONELLA TYPHIMURIUM, Strain/Indicator: TA98, Metabolic Activation: RAT, LIVER, S-9, AROCLOR 1254 (10%), Method: PREINCUBATION
# [11] = Test System: AMES SALMONELLA TYPHIMURIUM, Strain/Indicator: TA98, Metabolic Activation: RAT, LIVER, S-9, AROCLOR 1254, Method: STANDARD PLATE
# [12] = Test System: AMES SALMONELLA TYPHIMURIUM, Strain/Indicator: TA100, Metabolic Activation: RAT, LIVER, S-9, AROCLOR 1254 (10%), Method: PREINCUBATION
# [13] = Test System: AMES SALMONELLA TYPHIMURIUM, Strain/Indicator: TA100, Metabolic Activation: RAT, LIVER, S-9, AROCLOR 1254, Method: STANDARD PLATE
# [14] = Test System: AMES SALMONELLA TYPHIMURIUM, Strain/Indicator: TA1535, Metabolic Activation: RAT, LIVER, S-9, AROCLOR 1254, Method: STANDARD PLATE
# [15] = Test System: AMES SALMONELLA TYPHIMURIUM, Strain/Indicator: TA1537, Metabolic Activation: RAT, LIVER, S-9, AROCLOR 1254, Method: STANDARD PLATE
smiles,measurement,setting,value
Cc1ccc2cc3ccc4ccccc4c3nc2c1,mutagenic call,"Test System: AMES SALMONELLA TYPHIMURIUM, Strain/Indicator: TA97A, Metabolic Activation: NONE, Method: PREINCUBATION",inactive; negative
same,mutagenic call,[1],inactive; negative
same,mutagenic call,[2],active; positive
same,mutagenic call,"Test System: AMES SALMONELLA TYPHIMURIUM, Strain/Indicator: TA102, Metabolic Activation: NONE, Method: PREINCUBATION",inactive; negative
Cc1cn2c(N=O)c(-c3ccc([N+](=O)[O-])cc3)nc2s1,mutagenic call,[3],active; positive
same,mutagenic call,[4],active; positive
same,mutagenic call,[5],inactive; negative
same,mutagenic call,[6],inactive; negative
same,mutagenic call,[7],active; positive
CCOS(=O)(=O)OCC,mutagenic call,"End Point: IN VITRO CHROMOSOMAL ABERRATIONS, Test System: CHL CELLS, Metabolic Activation: RAT, LIVER, S-9, SODIUM PHENOBARBITAL AND 5,6-BENZOFLAVONE",active; positive (structural changes)
same,mutagenic call,"End Point: In vitro micronucleus, Test System: Chinese Hamster Ovary (CHO-WBL) cells, Metabolic Activation: None",active; positive (p<0.01)
same,mutagenic call,[1],active; positive
same,mutagenic call,"Test System: AMES SALMONELLA TYPHIMURIUM, Strain/Indicator: TA98, Metabolic Activation: RAT LIVER S-9, PHENOBARBITAL AND BETA-NAPHTHOFLAVONE, Method: PREINCUBATION",active; positive
same,mutagenic call,[2],active; positive
same,mutagenic call,[4],active; positive
same,mutagenic call,"Test System: AMES SALMONELLA TYPHIMURIUM, Strain/Indicator: TA100, Metabolic Activation: RAT LIVER S-9, PHENOBARBITAL AND BETA-NAPHTHOFLAVONE, Method: PREINCUBATION",active; positive
same,mutagenic call,[8],active; positive
same,mutagenic call,[5],active; positive
same,mutagenic call,"Test System: AMES SALMONELLA TYPHIMURIUM, Strain/Indicator: TA1535, Metabolic Activation: RAT LIVER S-9, PHENOBARBITAL AND BETA-NAPHTHOFLAVONE, Method: PREINCUBATION",active; positive
same,mutagenic call,[9],active; positive
same,mutagenic call,"Test System: AMES SALMONELLA TYPHIMURIUM, Strain/Indicator: TA1537, Metabolic Activation: RAT LIVER S-9, PHENOBARBITAL AND BETA-NAPHTHOFLAVONE, Method: PREINCUBATION",active; positive
same,mutagenic call,"Test System: CHINESE HAMSTER OVARY, Strain/Indicator: CHO-K1-BH4 (HGPRT), Metabolic Activation: NONE, Method: STANDARD PLATE",active; positive
same,mutagenic call,"Test System: CHINESE HAMSTER V-79, Strain/Indicator: V-79/6-THIOGUANINE, Metabolic Activation: NONE, Method: FLASK ASSAY",active; positive
same,mutagenic call,"Test System: E.COLI, Strain/Indicator: WP2UVRA, Metabolic Activation: NONE, Method: PREINCUBATION",active; positive
same,mutagenic call,"Test System: E.COLI, Strain/Indicator: WP2UVRA, Metabolic Activation: RAT LIVER S-9, PHENOBARBITAL AND BETA-NAPHTHOFLAVONE, Method: PREINCUBATION",active; positive
O=[N+]([O-])c1ccc2cc3ccccc3cc2c1,mutagenic call,[1],active; positive
same,mutagenic call,[3],active; positive
same,mutagenic call,[10],active; positive
same,mutagenic call,[11],active; positive
same,mutagenic call,[2],active; positive
same,mutagenic call,[12],active; positive
CCCCCCCCOC(=O)c1ccccc1C(=O)OCCCCCCCC,mutagenic call,"Test System: AMES SALMONELLA TYPHIMURIUM, Strain/Indicator: TA98, Metabolic Activation: HAMSTER, LIVER, S-9, AROCLOR 1254 (10%), Method: PREINCUBATION",inactive; negative
same,mutagenic call,[1],inactive; negative
same,mutagenic call,[10],inactive; negative
same,mutagenic call,"Test System: AMES SALMONELLA TYPHIMURIUM, Strain/Indicator: TA100, Metabolic Activation: HAMSTER, LIVER, S-9, AROCLOR 1254 (10%), Method: PREINCUBATION",inactive; negative
same,mutagenic call,[2],inactive; negative
same,mutagenic call,[12],inactive; negative
same,mutagenic call,"Test System: AMES SALMONELLA TYPHIMURIUM, Strain/Indicator: TA1535, Metabolic Activation: HAMSTER, LIVER, S-9, AROCLOR 1254 (10%), Method: PREINCUBATION",inactive; negative
same,mutagenic call,[8],inactive; negative
same,mutagenic call,"Test System: AMES SALMONELLA TYPHIMURIUM, Strain/Indicator: TA1535, Metabolic Activation: RAT, LIVER, S-9, AROCLOR 1254 (10%), Method: PREINCUBATION",inactive; negative
same,mutagenic call,"Test System: AMES SALMONELLA TYPHIMURIUM, Strain/Indicator: TA1537, Metabolic Activation: HAMSTER, LIVER, S-9, AROCLOR 1254 (10%), Method: PREINCUBATION",inactive; negative
same,mutagenic call,[9],inactive; negative
same,mutagenic call,"Test System: AMES SALMONELLA TYPHIMURIUM, Strain/Indicator: TA1537, Metabolic Activation: RAT, LIVER, S-9, AROCLOR 1254 (10%), Method: PREINCUBATION",inactive; negative
O=C1NC(=O)C(CCl)=C1Cl,mutagenic call,[4],active; positive
CCC(=O)n1ncc(Cl)c(Cl)c1=O,mutagenic call,[3],inactive; negative
same,mutagenic call,[11],inactive; negative
same,mutagenic call,[4],inactive; negative
same,mutagenic call,[13],inactive; negative
same,mutagenic call,[5],inactive; negative
same,mutagenic call,[14],inactive; negative
same,mutagenic call,[6],inactive; negative
same,mutagenic call,[15],inactive; negative
Oc1cc(O)c2c(c1)O[C@H](c1ccc(O)c(O)c1)[C@H](O)C2,mutagenic call,"Test System: Ames Salmonella typhimurium, Strain/Indicator: TA102, Metabolic Activation: None, Method: Preincubation",inactive; negative
same,mutagenic call,"Test System: Ames Salmonella typhimurium, Strain/Indicator: TA102, Metabolic Activation: Rat, Liver, S-9, Aroclor 1254 in 0.154 M KCl, Method: Preincubation",inactive; negative
O=Nc1cccc(-c2ccccc2)c1,mutagenic call,[3],active; positive
same,mutagenic call,[4],active; positive
CCC(=O)N(O)c1ccc(Cl)c(Cl)c1,mutagenic call,"Test System: AMES SALMONELLA TYPHIMURIUM, Strain/Indicator: TA97, Metabolic Activation: NONE, Method: STANDARD PLATE",inactive; negative
same,mutagenic call,"Test System: AMES SALMONELLA TYPHIMURIUM, Strain/Indicator: TA97, Metabolic Activation: RAT, LIVER, S-9, AROCLOR 1254, Method: STANDARD PLATE",inactive; negative
same,mutagenic call,[3],inactive; negative
same,mutagenic call,[11],inactive; negative
same,mutagenic call,[4],inactive; negative
same,mutagenic call,[13],inactive; negative
same,mutagenic call,"Test System: AMES SALMONELLA TYPHIMURIUM, Strain/Indicator: TA104, Metabolic Activation: NONE, Method: STANDARD PLATE",inactive; negative
same,mutagenic call,"Test System: AMES SALMONELLA TYPHIMURIUM, Strain/Indicator: TA104, Metabolic Activation: RAT, LIVER, S-9, AROCLOR 1254, Method: STANDARD PLATE",inactive; negative
COc1nsc2ccc(OCC3CO3)cc12 (stereo not drawn),mutagenic call,[4],active; positive
O=C1c2cccc(S(=O)(=O)O)c2C(=O)c2cccc([N+](=O)[O-])c21,mutagenic call,[3],active; positive
same,mutagenic call,[4],inactive; negative
same,mutagenic call,[13],inactive; negative
same,mutagenic call,[5],inactive; negative
same,mutagenic call,[14],inactive; negative
same,mutagenic call,[6],inactive; negative
same,mutagenic call,[15],inactive; negative
same,mutagenic call,[7],active; positive
same,mutagenic call,"Test System: AMES SALMONELLA TYPHIMURIUM, Strain/Indicator: TA1978, Metabolic Activation: NONE, Method: STANDARD PLATE",inactive; negative
Nc1cccc([N+](=O)[O-])c1CO,mutagenic call,[1],inactive; negative
same,mutagenic call,"Test System: AMES SALMONELLA TYPHIMURIUM, Strain/Indicator: TA98, Metabolic Activation: RAT, LIVER, S-9, PHENOBARBITAL AND 5,6-BENZOFLAVONE, Method: PREINCUBATION",inactive; negative
same,mutagenic call,[2],inactive; negative
same,mutagenic call,"Test System: AMES SALMONELLA TYPHIMURIUM, Strain/Indicator: TA100, Metabolic Activation: RAT, LIVER, S-9, PHENOBARBITAL AND 5,6-BENZOFLAVONE, Method: PREINCUBATION",inactive; negative
